How the values were obtained:
Format in all cases: functional
[1] = system: Leptinotarsa decemlineata; assay: Insecticidal activity against adult Leptinotarsa decemlineata infested potato leaves assessed as mortality at 10 ul after 48 hr relative to control
[2] = system: Leptinotarsa decemlineata; assay: Insecticidal activity against second-instar larval stage of Leptinotarsa decemlineata infested potato leaves assessed as mortality at 10 ul after 48 hr (reference value: 3.3 +/- 3.3%)
[3] = system: Leptinotarsa decemlineata; assay: Insecticidal activity against second-instar larval stage of Leptinotarsa decemlineata infested potato leaves assessed as mortality at 20 ul after 12 hr relative to control
[4] = system: Leptinotarsa decemlineata; assay: Insecticidal activity against first-instar larval stage of Leptinotarsa decemlineata infested potato leaves assessed as mortality at 20 ul after 48 hr relative to control
[5] = system: Leptinotarsa decemlineata; assay: Insecticidal activity against third-instar larval stage of Leptinotarsa decemlineata infested potato leaves assessed as mortality at 10 ul after 48 hr (reference value: 3.3 +/- 3.3%)
[6] = system: Leptinotarsa decemlineata; assay: Insecticidal activity against adult Leptinotarsa decemlineata infested potato leaves assessed as mortality at 10 ul after 24 hr relative to control
[7] = system: Leptinotarsa decemlineata; assay: Insecticidal activity against third-instar larval stage of Leptinotarsa decemlineata infested potato leaves assessed as mortality at 20 ul after 96 hr (reference value: 3.3 +/- 3.3%)
[8] = system: Leptinotarsa decemlineata; assay: Insecticidal activity against first-instar larval stage of Leptinotarsa decemlineata infested potato leaves assessed as mortality at 10 ul after 24 hr relative to control
[9] = system: Leptinotarsa decemlineata; assay: Insecticidal activity against first-instar larval stage of Leptinotarsa decemlineata infested potato leaves assessed as mortality at 20 ul after 24 hr relative to control
[10] = system: Leptinotarsa decemlineata; assay: Insecticidal activity against third-instar larval stage of Leptinotarsa decemlineata infested potato leaves assessed as mortality at 20 ul after 48 hr (reference value: 3.3 +/- 3.3%)
[11] = system: Leptinotarsa decemlineata; assay: Insecticidal activity against adult Leptinotarsa decemlineata infested potato leaves assessed as mortality at 20 ul after 12 hr relative to control
[12] = system: Leptinotarsa decemlineata; assay: Insecticidal activity against first-instar larval stage of Leptinotarsa decemlineata infested potato leaves assessed as mortality at 20 ul after 12 hr relative to control
[13] = system: Leptinotarsa decemlineata; assay: Insecticidal activity against first-instar larval stage of Leptinotarsa decemlineata infested potato leaves assessed as mortality at 20 ul after 96 hr relative to control
[14] = system: Leptinotarsa decemlineata; assay: Insecticidal activity against first-instar larval stage of Leptinotarsa decemlineata infested potato leaves assessed as mortality at 10 ul after 96 hr relative to control
[15] = system: Leptinotarsa decemlineata; assay: Insecticidal activity against third-instar larval stage of Leptinotarsa decemlineata infested potato leaves assessed as mortality at 20 ul after 12 hr relative to control
[16] = system: Leptinotarsa decemlineata; assay: Insecticidal activity against second-instar larval stage of Leptinotarsa decemlineata infested potato leaves assessed as mortality at 10 ul after 12 hr relative to control
[17] = system: Leptinotarsa decemlineata; assay: Insecticidal activity against adult Leptinotarsa decemlineata infested potato leaves assessed as mortality at 10 ul after 12 hr relative to control
[18] = system: Leptinotarsa decemlineata; assay: Insecticidal activity against second-instar larval stage of Leptinotarsa decemlineata infested potato leaves assessed as mortality at 20 ul after 24 hr (reference value: 3.3 +/- 3.3%)
[19] = system: Leptinotarsa decemlineata; assay: Insecticidal activity against adult Leptinotarsa decemlineata infested potato leaves assessed as mortality at 20 ul after 48 hr relative to control
[20] = system: Leptinotarsa decemlineata; assay: Insecticidal activity against second-instar larval stage of Leptinotarsa decemlineata infested potato leaves assessed as mortality at 20 ul after 96 hr (reference value: 3.3 +/- 3.3%)
[21] = system: Leptinotarsa decemlineata; assay: Insecticidal activity against adult Leptinotarsa decemlineata infested potato leaves assessed as mortality at 10 ul after 96 hr relative to control
[22] = system: Leptinotarsa decemlineata; assay: Insecticidal activity against adult Leptinotarsa decemlineata infested potato leaves assessed as mortality at 20 ul after 96 hr relative to control
[23] = system: Leptinotarsa decemlineata; assay: Insecticidal activity against first-instar larval stage of Leptinotarsa decemlineata infested potato leaves assessed as mortality at 10 ul after 48 hr relative to control
[24] = system: Leptinotarsa decemlineata; assay: Insecticidal activity against first-instar larval stage of Leptinotarsa decemlineata infested potato leaves assessed as mortality at 10 ul after 12 hr relative to control
[25] = system: Leptinotarsa decemlineata; assay: Insecticidal activity against third-instar larval stage of Leptinotarsa decemlineata infested potato leaves assessed as mortality at 10 ul after 24 hr relative to control
[26] = system: Leptinotarsa decemlineata; assay: Insecticidal activity against second-instar larval stage of Leptinotarsa decemlineata infested potato leaves assessed as mortality at 10 ul after 24 hr (reference value: 3.3 +/- 3.3%)
[27] = system: Leptinotarsa decemlineata; assay: Insecticidal activity against second-instar larval stage of Leptinotarsa decemlineata infested potato leaves assessed as mortality at 20 ul after 48 hr (reference value: 3.3 +/- 3.3%)
[28] = system: Leptinotarsa decemlineata; assay: Insecticidal activity against second-instar larval stage of Leptinotarsa decemlineata infested potato leaves assessed as mortality at 10 ul after 96 hr (reference value: 3.3 +/- 3.3%)
[29] = system: Leptinotarsa decemlineata; assay: Insecticidal activity against third-instar larval stage of Leptinotarsa decemlineata infested potato leaves assessed as mortality at 10 ul after 12 hr relative to control
[30] = system: Leptinotarsa decemlineata; assay: Insecticidal activity against adult Leptinotarsa decemlineata infested potato leaves assessed as mortality at 20 ul after 24 hr relative to control
[31] = system: Leptinotarsa decemlineata; assay: Insecticidal activity against third-instar larval stage of Leptinotarsa decemlineata infested potato leaves assessed as mortality at 20 ul after 24 hr relative to control
[32] = system: Leptinotarsa decemlineata; assay: Insecticidal activity against third-instar larval stage of Leptinotarsa decemlineata infested potato leaves assessed as mortality at 10 ul after 96 hr (reference value: 3.3 +/- 3.3%)

Row | Compound | mortality [1] [%] | mortality [2] [%] | mortality [3] [%] | mortality [4] [%] | mortality [5] [%] | mortality [6] [%] | mortality [7] [%] | mortality [8] [%] | mortality [9] [%] | mortality [10] [%] | mortality [11] [%] | mortality [12] [%] | mortality [13] [%] | mortality [14] [%] | mortality [15] [%] | mortality [16] [%] | mortality [17] [%] | mortality [18] [%] | mortality [19] [%] | mortality [20] [%] | other results
1 | CC(C)=CCCC(C)CCO (stereo not given) [CITRONELLOL] | 13.3 | 46.7 | 16.7 | 16.7 | 23.3 | 13.3 | 16.7 | 40 | 3.3 | 6.7 | 0 | 0 | 26.7 | 50 | 3.3 | 6.7 | 13.3 | 20 | 0 | 26.7 | mortality [21]: 13.3%; mortality [22]: 0%; mortality [23]: 46.7%; mortality [24]: 6.7%; mortality [25]: 20%; mortality [26]: 40%; mortality [27]: 23.3%; mortality [28]: 50%; mortality [29]: 20%; mortality [30]: 0%; mortality [31]: 3.3%; mortality [32]: 26.7%
2 | C=C(C)[C@@H]1CC[C@@H](C)C(=O)C1 [DIHYDROCARVONE] | 53.3 | 76.7 | 36.7 | 70 | 16.7 | 30 | 76.7 | 33.3 | 50 | 60 | 0 | 26.7 | 80 | 40 | 16.7 | 23.3 | 6.7 | 83.3 | 63.3 | 100 | mortality [21]: 63.3%; mortality [22]: 80%; mortality [23]: 33.3%; mortality [24]: 0%; mortality [25]: 16.7%; mortality [26]: 63.3%; mortality [27]: 86.7%; mortality [28]: 83.3%; mortality [29]: 0%; mortality [30]: 23.3%; mortality [31]: 46.7%; mortality [32]: 23.3%
3 | C=C1CCC2CC1C2(C)C (stereo not drawn) [BETA-PINENE] | 100 | 90 | 20 | 100 | 100 | 100 | 100 | 66.7 | 100 | 100 | 80 | 66.7 | 100 | 100 | 100 | 56.7 | 100 | 70 | 100 | 86.7 | mortality [21]: 100%; mortality [22]: 100%; mortality [23]: 96.7%; mortality [24]: 43.3%; mortality [25]: 83.3%; mortality [26]: 76.7%; mortality [27]: 80%; mortality [28]: 100%; mortality [29]: 80%; mortality [30]: 96.7%; mortality [31]: 100%; mortality [32]: 100%
4 | C/C=C(C)/C=C/C=C(C)C [ALLO-OCIMENE] | 3.3 | 50 | 30 | 46.7 | 0 | 3.3 | 26.7 | 33.3 | 33.3 | 23.3 | 3.3 | 16.7 | 56.7 | 56.7 | 23.3 | 23.3 | 3.3 | 43.3 | 20 | 60 | mortality [21]: 3.3%; mortality [22]: 23.3%; mortality [23]: 46.7%; mortality [24]: 13.3%; mortality [25]: 0%; mortality [26]: 40%; mortality [27]: 53.3%; mortality [28]: 66.7%; mortality [29]: 0%; mortality [30]: 20%; mortality [31]: 23.3%; mortality [32]: 0%
5 | C=CC(=C)CCC=C(C)C [MYRCENE] | 100 | 93.3 | 73.3 | 100 | 56.7 | 93.3 | 76.7 | 80 | 90 | 73.3 | 73.3 | 36.7 | 100 | 93.3 | 36.7 | 56.7 | 46.7 | 90 | 96.7 | 100 | mortality [21]: 100%; mortality [22]: 100%; mortality [23]: 93.3%; mortality [24]: 20%; mortality [25]: 53.3%; mortality [26]: 93.3%; mortality [27]: 100%; mortality [28]: 93.3%; mortality [29]: 26.7%; mortality [30]: 90%; mortality [31]: 70%; mortality [32]: 60%

Reference: ChEMBL document CHEMBL3046407, “Toxicity of monoterpenes against larvae and adults of Colorado potato beetle, Leptinotarsa decemlineata Say (Coleoptera: Chrysomelidae)” (2007)
